Source: patent US20240041050A1, “CELL PENETRATING PEPTIDE MEDIATED RNA TRANSDUCTION WITHIN INSECT CELLS” (PIONEER HI-BRED INTERNATIONAL, INC., priority 2020, published 2024)
Peptide text beside a SMILES is read from it.

Tests used:
[1] = test system: dvssj1 frag 1 dsRNA; assay: CPP·dsRNA complex formation by gel shift assay; format: binding; settings: 770 nM unlabeled dsRNA (2100 ng); molar ratio 1:4 through 8:1; 1.2% TE agarose gel
Method: FIG. 2 Formation of CPP·dsRNA complex as assessed by gel shift assay. FIG. 2A Reactions were assembled as described in Example 3, with increasing amounts of MPG-YFP added to […] Cy3-dsRNA (595.8 ng), from a molar ratio (CPP:dsRNA) of 1:4 through 8:1. After incubation, 20 μL reaction volumes were each mixed with 2 μL 10% molecular biology grade glycerol and electrophoresed on a 1.2% Tris-EDTA (TE) agarose gel and stained with Invitrogen™ SYBR Safe DNA Gel Stain (Thermo Fisher Scientific, Waltham, MA). Effects on mobility of the Cy3-dsRNA band are observed upon increasing molar ratios of MPG-YFP. […] The large relative size of MPG-YFP causes a large band shift. FIG. 2B Reactions were assembled as described in Example 3, with increasing amounts of CyLoP added to 770 nM dsRNA (2100 ng), from a molar ratio of 1:4 through 8:1. […] FIG. 2C Results of MPG-YFP binding to Cy3-dsRNA (described in 2A) assessed by DLS. […] Readings were collected using default settings for protein molecules, at 25° C. with a 15 second equilibration stage, using a Zetasizer Ultra and accompanying software (Malvern Panalytical, Malvern, United Kingdom). The dispersant was adjusted to account for the specific viscosity and refractive index of the complex formation solution prior to calculation of detected sizes. […]

[2] = test system: western corn rootworm (WCR) larvae; assay: Oral toxicity screening of CPPs in artificial diet; format: in vivo; settings: first instar WCR larvae, mortality and stunting
Method: Briefly, CPPs were incorporated into standard WCR artificial diet in 96-well microtiter plate format. A 25 μL aliquot of dosing solution was combined with 75 μL molten low-melt WCR diet and shaken on an orbital shaker to mix. Once diet solidified, preconditioned first instar WCR (freshly-hatched insects placed on neutral diet for 24 hours prior to transfer to test diet) were added to the diet plates at a rate of 1 insect·well^−1. Plates were placed inside an incubator (Percival Scientific, Inc., Perry, IA) set to 27° C., 65% RH, and a 24-hour dark cycle. The assay was scored for mortality and stunting affects after 7 and 12 days, without diet refresh, on a 0-3 scale, where 3=mortality, 2=severe stunting, 1=stunting, 0=no affect when compared with untreated larvae. The assay was repeated three times and end-results were tabulated using all three replicates and converted to percentages (Table 5).

## N=C(N)NCCC[C@H](NC(=O)[C@H](Cc1c[nH]c2ccccc12)NC(=O)[C@H](CCCNC(=N)N)NC(=O)[C@@H](N)CS)C(=O)N[C@@H](Cc1c[nH]c2ccccc12)C(=O)N[C@@H](CCCCN)C(=O)N[C@@H](CS)C(=O)N[C@@H](CS)C(=O)N[C@@H](CCCCN)C(=O)N[C@@H](CCCCN)C(=O)O [CyLoP-1, CRWRWKCCKK] (H-CRWRWKCCKK-OH; N-terminus and C-terminus assumed)
[1]
  gel shift: apparent size of the RNA band with increasing CPP: binding of CyLoP molecules to the RNA
[2]; 0.195 ppm in artificial diet
  Affected (%): 0%
[2]; 0.391 ppm in artificial diet
  Affected (%): 0%
[2]; 0.781 ppm in artificial diet
  Affected (%): 0%
[2]; 1.56 ppm in artificial diet
  Affected (%): 0%
[2]; 3.13 ppm in artificial diet
  Affected (%): 0%
[2]; 6.25 ppm in artificial diet
  Affected (%): 0%
[2]; 12.5 ppm in artificial diet
  Affected (%): 0%
[2]; 25.0 ppm in artificial diet
  Affected (%): 0%
[2]; 50.0 ppm in artificial diet
  Affected (%): 0%
[2]; 100 ppm in artificial diet
  Affected (%): 0%
[2]; 200 ppm in artificial diet
  Affected (%): 0%
